Data on 5 substances can be found in US12570709B2, “Self-assembling peptide amphiphiles displaying a transforming growth factor beta 1 (TGF-ß1) mimetic epitope” (Northwestern University, priority 2021, dated 2026).

Bridge positions count the residues as written; N and C are the ends. Ends that are not written are not given here. I, II: the chains in the order shown. * marks the point of attachment. Palmitoyl = CCCCCCCCCCCCCCCC(=O)*

A short description of series [1]: Rheology of PA hydrogels (strain sweep, G′/G″ crossover). The following applies: PA gels, 10 mol % co-assemblies. In kind it is physicochemical. On the procedure:
Gels were made using 2 wt % PA solutions prepared as previously described, using 10 mol % co-assemblies of epitope PA with diluent PA. 12-well chamber slides (Ibidi) were coated with 0.01 mg/mL poly-D-lysine (Sigma-Aldrich) solution and incubated overnight at 37° C. The wells were washed three times with water and air-dried for at least 30 minutes. 120 μL of PA solution was pipetted evenly into the well and gelling solution comprised of 110 mM NaCl, 3 mM KCl, and 25 mM CaCl2 was pipetted dropwise on top of the PA solution. The gels were incubated at 37° C. for 30 minutes, and then excess gelling solution was removed.
Measurements were performed on an Anton Paar MCR302 rheometer with a 25 mm parallel-plate fixture. 120 μL of the PA/HA hybrid slurry was placed on the bottom plate and 30 μL of a 50 mM CaCl2/75 mM NaCl gelling solution was placed on the upper fixture. The fixture was lowered to a gap of 0.5 mm for 10 min during which time a 0.1% oscillatory strain was applied with a 10 rad/s angular frequency. The gap height was allowed to vary to keep the normal force at 0 N. Next, a strain sweep was performed at 10 rad/s from 0.1% to 100% strain to measure the strain to break the gel.

Series [2] relates to human chondrocytes encapsulated in PA hydrogels. Briefly: F-actin ICC and confocal microscopy of chondrocytes encapsulated in PA gels. Format: cell-based. The following applies: three days in vitro, equal concentrations of cells encapsulated. On the procedure: (§1) Fixed samples were permeabilized and blocked in a solution of 0.1% (v/v) Triton X-100 and 1% normal horse serum (Invitrogen) for 2 hours at room temperature. Samples were incubated with primary antibodies overnight at 4° C. The following primary antibodies were used: rabbit anti-Sox9 (1:500, Abcam), mouse anti-Aggrecan (1:500, ThermoFisher), mouse anti-Collagen II (1:500, ThermoFisher), and mouse anti-Nuclei (1:500, Sigma-Aldrich). The next day, samples were incubated with AlexaFluor 488 secondary antibody, AlexaFluor 555 secondary antibody, Phalloidin AlexaFluor 488, and/or Phalloidin AlexaFluor 633 (1:1000, Invitrogen) for 2-3 h at room temperature. For 2D cell culture, samples were then incubated with DAPI (1:1000, Invitrogen) for 10 minutes at room temperature. If not already on a glass coverslip, samples were mounted with Immu-Mount (Thermo Scientific) and imaged on a Nikon A1R Spectral microscope. Image analysis was performed using ImageJ software.
Chondrocytes were trypsinized and resuspended in growth media for counting, and then pelleted and resuspended to 6×10^7 cells/mL in growth media. The cell solution was mixed 1:2 v/v with sterile PA solution prepared at 3 wt % in 30 mM NaCl. For gels also encapsulating rhTGF-β1 protein (R&D Systems), soluble protein was added to PA solutions after thermal annealing. 120 μL of PA/cell solution was mixed thoroughly by pipetting gently and then placed into PDL-coated 12-well chamber slides (Ibidi). Sterile gelling solution, comprised of 110 mM NaCl, 3 mM KCl, and 25 mM CaCl2, was pipetted dropwise on top of the PA/cell solution and the gels were incubated for 30 minutes at 37° C. Following incubation, excess gelling solution was removed and 250 μL of growth media was added to each well. The media was removed after 3 days for LDH viability assays as described above. For ICC, after 3 days of in vitro culture, gels were fixed in 4% paraformaldehyde for 30 minutes at room temperature.

Series [3] can be described thus: Transverse-relaxation (T2) NMR spectroscopy of PA assemblies. The following applies: backbone PA assemblies. In kind it is physicochemical. How it is done:
NMR spectra were acquired at 600 MHz on a Brucker Neo system with QCI-F cryoprobe. NMR spectra for PAs were recorded at 25° C. using TFA-d, H2O/D2O in 9/1 ratio (D2O contains 0.05 wt. % 3-(trimethylsilyl) propionic-2,2,3,3-d4 acid, sodium salt) as solvents. Chemical shifts are reported in part per million (ppm). The […] was 15 μs and typical spectra required 32 scans.
The spin-spin relaxation rates were measured using the Carr-Purcell-Gill-Meiboom pulse sequence with a delay time of 0.2 ms in a variable loop. The peak intensity data was fit to and exponential in the form:
[formula] where τ is the length of the delay time, R2 is the spin-spin relaxation rate and b are the baseline.^2 Cell Culture

Series [4] deals with Smad2 phosphorylation (intracellular TGF-β1 signaling) in human chondrocytes. Kind of series: Western blot of phosphorylated Smad2 after 4 h treatment. Format: cell-based. The following applies: for activation of p-Smad2 with addition of pan-TGF-β-neutralizing antibody 1D11: with vs without 1D11. How it is done: (§2) For western blot of 4 h PA treatments, cells were seeded in 6-well plates at a density of 600,000 cells/well and cultured for 24 h. […] Cells were then treated with PA in solution for 4 h in vitro. For western blot of 3-day PA treatments, cells were seeded in 6-well plates at a density of 230,000 cells/well and cultured for 24 h. Cells were then treated with PA in solution for 3 days in vitro.
(§3) Protein was extracted from cells using Halt Protease and Phosphatase Inhibitor Cocktail (Thermo Scientific) and a BCA assay (Thermo Scientific) was performed to determine protein content of each sample. Cell protein was loaded into and separated using a 4-20% SDS-PAGE gel (Bio-Rad). It was then electrotransferred from the gel to a nitrocellulose membrane (Bio-Rad). The membranes were blocked with 10% milk solution (Bio-Rad) for 30 minutes followed by an overnight incubation with primary antibodies at 4° C. The following primary antibodies were used: rabbit anti-pSmad2 (1:1000, Cell Signaling), rabbit anti-Smad2 (1:1000, Cell Signaling), rabbit anti-Sox9 (1:500, Abcam), mouse anti-Aggrecan (1:500, ThermoFisher), rabbit anti-COMP/Cartilage oligomeric matrix protein (1:500, Abcam), mouse anti-Collagen II (1:500, ThermoFisher), and mouse anti-Actin (1:1000, Novus Bio). Membranes were then incubated with their corresponding secondary HRP-conjugated antibodies (1:1000, ThermoFisher). Protein signals were detected using Radiance Bioluminescent ECL substrate (Azure Biosystems). Densitometry analysis, standardized to total receptor content or actin as a control for protein loading, was performed using ImageJ software. For quantification, experimental triplicate samples were analyzed, and two different experiments were conducted.
A general note: In western blotting, separated proteins are transferred to a membrane and probed.

Series [5] relates to collagen II, COMP, aggrecan and Sox9 in human chondrocytes. Briefly: Western blot of ECM proteins after three days treatment. As to conditions: 10 μM, three days in vitro. Format: cell-based. How it is done:
as §2, §3

The subject of series [6] is collagen II, aggrecan and F-actin in human chondrocytes. Kind of series: Immunocytochemistry staining and fluorescence intensity analysis after three days. Format: cell-based. As to conditions: three days in vitro. On the procedure: For immunocytochemistry (ICC), 12-mm glass coverslips were coated with sterile filtered 0.01 mg/mL poly-D-lysine (Sigma-Aldrich) solution and incubated overnight at 37° C. The coverslips were washed three times with sterile water and air-dried for at least 30 minutes. Cells were seeded on coverslips at a density of approximately 3,000 cells/coverslip and cultured for 24 h. Cells were then treated with PA in solution for 3 days in vitro. Following treatment, cells were fixed in 4% paraformaldehyde for 15 minutes at room temperature.
as §1

A short description of series [7]: Dynamic light scattering of TGF-β1 mimetic peptide. Format: physicochemical. The following applies: peptide alone, 100 mol %, 1 wt %, 25° C. How it is done:
DLS measurements were performed on a Malvern Zetasizer Nano ZSP light scattering spectrometer. The TGF-β1 mimetic peptide alone, without PA, was prepared at 1 wt % as previously described. During the sample measurement, the temperature was kept at 25° C. The sample was equilibrated for 30 seconds before each measurement was taken. The duration of each measurement was 10 seconds, and the measurement angle was 173° backscatter. The attenuator was determined by the instrument automatically, as was the number of accumulations for each run. Each measurement run was repeated 3 times.

The conditions of series [8]: cited from earlier work.

“C16-AAEE (Palmitoyl-AAEE-OH; SMILES CCCCCCCCCCCCCCCC(=O)N[C@@H](C)C(=O)N[C@@H](C)C(=O)N[C@@H](CCC(=O)O)C(=O)N[C@@H](CCC(=O)O)C(=O)O) [Backbone PA-a]”: in series [1], the “G′/G″ crossover % strain” value worked out at 7.10 ± 1.49% and the “G′/G″ crossover storage modulus” value turned out to be 0.55 ± 0.13 kPa. The “cells within the bulk of the gel” value in series [2] was “Far fewer cells were visible”. Also, the “1H spin-spin (T2) relaxation rate of terminal alkyl methyl protons” value in series [3] was 3.67 ± 0.23 s⁻¹.
Consider “C16-AEAE (Palmitoyl-AEAE-OH; SMILES CCCCCCCCCCCCCCCC(=O)N[C@@H](C)C(=O)N[C@@H](CCC(=O)O)C(=O)N[C@@H](C)C(=O)N[C@@H](CCC(=O)O)C(=O)O) [Backbone PA-b]”, for which the “1H spin-spin (T2) relaxation rate of terminal alkyl methyl protons” value in series [3] turned out to be 20.49 ± 0.58 s⁻¹.
As to “CESPLKRQC (disulfide 1-9 (inferred)) [TGF-β1 mimetic peptide, reference compound]”, the p-Smad2 activation entry in series [4] (50 μM, 4 h, 10 mol % co-assemblies) is “no activation”. In series [5], the “ECM synthesis (collagen II, COMP, aggrecan, Sox9)” value is reported as “low activation”. The “upregulation of collagen II and aggrecan” value in series [6] (10 μM, ICC) is “little upregulation of either protein”. In series [7], the “hydrodynamic diameter of micelles” value is listed as “approximately 2 nm” and the “size of aggregates of micelles” value was roughly 200 nm.
For “TGF PA-b: backbone PA SEQ ID NO: 8 conjugated to cyclic TGF-β1 mimetic peptide (SEQ ID NO: 1) by a linker; co-assembled with diluent Backbone PA-b (chain Palmitoyl-AEAEK-OH; peptide CESPLKRQC; disulfide II:1-II:9; not fully specified (some residues); also: co-assembled with diluent backbone PA-b)”, the “activation of p-Smad2 with addition of pan-TGF-β-neutralizing antibody 1D11” value in series [4] was “effectively neutralized”.
As for “rhTGF-β1: native recombinant human TGF-β1 (R&D Systems), positive control”, the “activation of p-Smad2 with addition of pan-TGF-β-neutralizing antibody 1D11” value in series [4] is “effectively neutralized”. In addition, in series [8], the “half-life in its active form in vivo” value is 2 to 3 min. For the same substance, the aggrecan synthesis entry in series [6] (10 μM, ICC) is “significantly increased aggrecan synthesis at similar levels”. Also, the “chondrocyte phenotype (F-actin staining)” value in series [6] is “maintained healthy chondrocyte phenotypes and prevented hypertrophy”.
